Several values for one entry are separate records, joined by “and”; a condition that tells them apart may be missing. Identical values can stand only once. Entries after “also recorded” stand apart in the source; their conditions may differ.
Key:
[1] = tested on: A498 human renal tumor xenografts; experiment: Subcutaneous A498 xenograft tumor model; type: in vivo, athymic nude mice; conditions: NSC-281612 54 mg/kg Q4Dx3 from day 4 post implantation, compared with NSC-281817 120 mg/kg
Experimental: Tumor cells (e.g., A498 and RXF-393) were derived from established tumors maintained by serial passage in mice for a maximum of 10 passages. […] Male mice were used in all experiments. All animals were provided by NCI contractors at the NCI-Frederick production facility or Taconic Laboratories (Germantown, N.Y.).
(§1) Intraperitoneal drug treatment schedules were established from the tumor doubling times because pharmacological data were not available. The dose levels were determined by establishing a single injection maximum tolerated dose (MTD) from which the experimental doses were calculated as: dose (mg/kg)=[(1.5×MTD)/no. of doses to be given]. Each experiment consisted of 20 control mice (based on statistical need) that received dosing vehicle (saline+0.05% Tween 80) on the same schedule as used for the test articles. Each treated group contained six mice. Tumor volumes were measured two to three times weekly and the tumor weights were calculated using the formula for a prolate ellipsoid: tumor weight (mg)={[length (in mm)]×[width (in mm)]^2}/2. The control tumors reached 500 mm^3 in 27 days for A498 and 12 days for RXF-393.
Human tumor xenografts were generated by injection of 1×10^7 A498 tumor cells subcutaneously into athymic nude male mice. […] The tumor weight was calculated every fourth day beginning at day 7. […]

[2] = tested on: RXF-393 human renal tumor cells; experiment: Orthotopic intrarenal RXF-393 tumor model; type: in vivo, mice; conditions: for Median Tumor Weight (mg, Day 23) / T/C (%) / Median Tumor Weight (mg, Day 27): Rt. IV
[3] = Toxicity (mortality, body weight loss, tolerability) in mice bearing intrarenal RXF-393 tumors; type: in vivo
Experimental: as §1
RXF-393 cells were injected directly into the caudal pole of the kidney on Day 0. The inoculated kidney was monitored for tumor growth in treated versus control mice by collecting and weighing the kidneys on day 25 post-implantation. In a preliminary experiment, NSC-281612 was administered intraperitoneally (IP) every fourth day for a total of 5 treatments (Q4D×5) starting 4 days after tumor implantation. […] In this study, NSC-281612 was assessed at 25 mg/kg (Group 2), 16.8 mg/kg (Group 3) and 11.3 mg/kg (Group 4). Due to toxicity, the 25 mg/kg dose was lowered to 8.3 mg/kg and only 4 doses were administered to Groups 2 and 3 (see Table 1).
To assess the impact of drug administration route, an experiment was conducted in which NSC-281612 was administered at doses of 8 mg/kg, 4 mg/kg and 2 mg/kg given intravenously (IV) on a Q4D×5 schedule with the first treatment given on day 4 post-tumor implantation. […] See, Table 2 for results and FIG. 6 for individual renal tumor weights for mice administered control only (vehicle), 8 mg/kg, 4 mg/kg, or 2 mg/kg intravenously on a Q4D×5 schedule.

Dunning rat leukemia = conditions: Elderfield, private communication; no specific data disclosed; cited from earlier work
RCC tumor cell lines = conditions: cited from earlier work
xenograft = conditions: mouse, in vivo; cited from earlier work
[4] = 2 mg/kg/dose IV Q4Dx5 from day 4
[5] = 4 mg/kg/dose IV Q4Dx5 from day 4
[6] = 8 mg/kg/dose IV Q4Dx5 from day 4
[7] = Group 2: 25 mg/kg Q4Dx3 and a final dose of 8.3 mg/kg IP

Cc1cc(N(CCOS(C)(=O)=O)CCOS(C)(=O)=O)ccc1C=O [NSC-281612, 4-[bis[2-[(methylsulfonyl)oxy]ethyl]amino]-2-methyl-benzaldehyde]
median tumor weight (effectiveness in limiting tumor weight) [1]: at least as effective in limiting tumor weight as NSC-281617
reduction in tumor mass ([2]; 2 mg/kg/dose IV Q4Dx5): did not achieve a level of statistical significance
Day 22 Tumor Weight average [2, 4]: 270 mg
Day 22 Tumor Weight median [2, 4]: 284 mg
Median Tumor Weight (mg, Day 23) ([2]; 3.4 mg/kg/dose, QDx5, D5): 11.5 mg
T/C (%) ([2]; 3.4 mg/kg/dose, QDx5, D5, Day 23): 3%
Day 22 Tumor Weight average [2, 5]: 31 mg
Day 22 Tumor Weight median [2, 5]: 7 mg
tumor free animals ([2]; 5 mg/kg/dose IP Q4Dx5): no tumor free animals
tumor mass compared to the controls ([2]; 5 mg/kg/dose IP Q4Dx5): significant reduction in tumor mass
Median Tumor Weight (mg, Day 23) ([2]; 5 mg/kg/dose, QDx5, D5): 0 mg
T/C (%) ([2]; 5 mg/kg/dose, QDx5, D5, Day 23): 0%
Median Tumor Weight (mg, Day 23) ([2]; 7.5 mg/kg/dose, QDx5, D5): 0 mg
T/C (%) ([2]; 7.5 mg/kg/dose, QDx5, D5, Day 23): 0%
Day 22 Tumor Weight average [2, 6]: 1 mg
Day 22 Tumor Weight median [2, 6]: 0 mg
reduction in tumor weights ([2]; 8 mg/kg/dose and 4 mg/kg/dose IV Q4Dx5): statistically significant reductions in the tumor weights
Median Tumor Weight (mg, Day 27) ([2]; 25 mg/kg/dose, QDx1, D1O): 0 mg
T/C (%) ([2]; 25 mg/kg/dose, QDx1, D1O, Day 27): 0%
Median Tumor Weight (mg, Day 27) ([2]; 25 mg/kg/dose, QDx1, D5): 340 mg
T/C (%) ([2]; 25 mg/kg/dose, QDx1, D5, Day 27): 94%
Median Tumor Weight (mg, Day 27) ([2]; 25 mg/kg/dose, QDx1, D15): 1 mg
T/C (%) ([2]; 25 mg/kg/dose, QDx1, D15, Day 27): 0%
tumor burden at day 25 post-implantation ([2]; IP Q4Dx5 starting day 4, 25, 16.8 and 11.3 mg/kg (Groups 2-4)): markedly reduced the tumor burden; also recorded: active against intrarenal RXF-393 tumors at several doses
decrease in tumor weight ([2]; daily dose for five sequential days, doses as low as 3.4 mg/kg/dose): statistically significant decrease in tumor weight
efficacy of single dose ([2]; single 25 mg/kg dose on day 5 post-tumor implantation): ineffective
animals with no detectable tumor ([2]; single 25 mg/kg dose on day 10 or 15 post-tumor implantation): seven often
tolerability ([3]; 8, 4 and 2 mg/kg IV Q4Dx5 from day 4): well tolerated
average weight loss [3, 7]: 27%
mortality [3, 7]: no mortality
mortality ([3]; Group 3: 16.8 mg/kg Q4Dx5 IP, 16.8 mg/kg): no mortality and 16.8 mg NSC-281612/kg Q4Dx5 IP. There was no mortality
mortality ([3]; Group 4: 11.3 mg/kg Q4Dx5 IP, 11.3 mg/kg): no mortality and 11.3 mg NSC-281612/kg Q4Dx5 IP. There was no mortality
activity against Dunning rat leukemia (Dunning rat leukemia): possesses activity against Dunning rat leukemia

Cc1cc(N(CCOS(C)(=O)=O)CCOS(C)(=O)=O)ccc1C=Nc1ccc(-c2nc(Cc3ccccc3)sc2C)cc1 [NSC-281817]
in vitro activity against RCC tumor cell lines (RCC tumor cell lines): having in vitro activity
antitumor activity in xenograft-bearing mice (xenograft): only modest

CS(=O)(=O)OCCN(CCOS(C)(=O)=O)c1ccc(C=Nc2ccc(-c3csc(COc4ccccc4)n3)cc2)cc1 [compound 280074]
in vitro activity against RCC tumor cell lines (RCC tumor cell lines): having in vitro activity
antitumor activity in xenograft-bearing mice (xenograft): only modest

Cc1cc(N(CCOS(C)(=O)=O)CCOS(C)(=O)=O)ccc1C=Nc1ccc(-c2csc(-c3ccccc3)n2)c(Cl)c1 [compound 281613]
in vitro activity against RCC tumor cell lines (RCC tumor cell lines): having in vitro activity
antitumor activity in xenograft-bearing mice (xenograft): only modest
